# Source: US8703805B2 (Exelixis Patent Company LLC, priority 2005, dated 2014)
# Test system: LXRα and/or LXRβ
# Assay: LXR/LXRE co-transfection assay (luciferase reporter, CV-1 cells)
# Type: cell-based, human
# Conditions: IC50 or EC50 for LXR (LXRα and/or LXRβ, not distinguished), tested as described in Example 109, CV-1 cells
# Summary of the method: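 Transient co-transfection of CV-1 cells with full-length human LXRα or LXRβ plus RXRα expression plasmids and an LXREx1-Tk-luciferase reporter; compounds (10 μM screen, ≤1% DMSO) incubated 20 h at 37 °C. Luminescence read after lysis; EC50/IC50 from 8-point half-log curves, efficacy relative to a high control or DMSO.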
row,Compound,EC50
1,"CS(=O)(=O)c1cccc(-c2ccc(-c3cc(C(=O)N4CCCC4)nn3-c3ccccc3C(F)(F)F)s2)c1 [Example 1210, 5-{5-[3-(methylsulfonyl)phenyl]-2-thienyl}-3-(pyrrolidin-1-ylcarbonyl)-1-[2-(trifluoromethyl)phenyl]-1H-pyrazole]",< 1000 nM
2,"CC(C)(O)c1cc(-c2ccc(-c3cccc(S(C)(=O)=O)c3)s2)n(-c2ccc(Cl)c(Cl)c2)n1 [Example 1324, 2-[1-(3,4-dichlorophenyl)-5-{5-[3-(methylsulfonyl)phenyl]-2-thienyl}-1H-pyrazol-3-yl]propan-2-ol]",1000 to 10000 nM
3,"CS(=O)(=O)c1cccc(-c2ccc(-c3cc(C(=O)NCCN4CCOCC4)nn3-c3ccccc3Cl)s2)c1 [Example 590, 1-(2-chlorophenyl)-5-{5-[3-(methylsulfonyl)phenyl]-2-thienyl}-N-(2-morpholin-4-ylmethyl)-1H-pyrazole-3-carboxamide]",1000 to 10000 nM
4,"CC(C)(O)c1cc(-c2ccc(-c3cccc(S(C)(=O)=O)c3)s2)n(-c2ccncc2)n1 [Example 1343, 2-(5-{5-[3-(methylsulfonyl)phenyl]-2-thienyl}-1-pyridin-4-yl-1H-pyrazol-3-yl)propan-2-ol]",1000 to 10000 nM
5,"CS(=O)(=O)c1cccc(-c2ccc(-c3cc(C(=O)NCC(F)(F)F)nn3-c3cccnc3C(F)(F)F)c(Cl)c2)c1 [Example 1401, 5-(3-chloro-3′-(methylsulfonyl)biphenyl-4-yl)-N-(2,2,2-trifluoroethyl)-1-(2-(trifluoromethyl)pyridin-3-yl)-1H-pyrazole-3-carboxamide]",< 1000 nM
6,2-[1-(2-chlorophenyl)-5-{5-[3-(methylsulfonyl)phenyl]pyridin-2-yl}-1H-pyrazol-3-yl]propan-2-ol [Example 79],> 10000 nM
7,"CC(C)(O)c1cc(-c2ccc(-c3cccc(S(C)(=O)=O)c3)s2)n(-c2cc(F)ccc2Cl)n1 [Example 1334, 2-[1-(2-chloro-5-fluorophenyl)-5-{5-[3-(methylsulfonyl)phenyl]-2-thienyl}-1H-pyrazol-3-yl]propan-2-ol]",< 1000 nM
8,"CN(Cc1ccsc1)Cc1cc(-c2ccc(-c3cccc(S(C)(=O)=O)c3)s2)n(-c2ccccc2Cl)n1 [Example 544, 1-[1-(2-chlorophenyl)-5-{5-[3-(methylsulfonyl)phenyl]-2-thienyl}-1H-pyrazol-3-yl]-N-methyl-N-(3-thienylmethyl)methanamine]",1000 to 10000 nM
9,"CC(C)(O)c1cc(-c2ccccc2Cl)n(-c2ccc(-c3cccc(S(C)(=O)=O)c3)cc2)n1 [Example 1217, 2-{5-(2-chlorophenyl)-1-[3′-(methylsulfonyl)biphenyl-4-yl]-1H-pyrazol-3-yl}propan-2-ol]",1000 to 10000 nM
10,"CS(=O)(=O)c1cc(-c2ccc(-c3cc(C(F)(F)F)nn3-c3ncccc3C(F)(F)F)s2)ccc1CO [Example 1149, [2-(methylsulfonyl)-4-(5-{3-(trifluoromethyl)-1-[3-(trifluoromethyl)pyridin-2-yl]-1H-pyrazol-5-yl}-2-thienyl)phenyl]methanol]",< 1000 nM
11,1-(5-(1-(2-chlorophenyl)-3-(trifluoromethyl)-1H-pyrazol-5-yl)thiophen-2-ylsulfonyl)-4-methylpiperazine [Example 69],< 1000 nM
12,"CN(CC(=O)O)C(=O)c1cc(-c2ccc(-c3cccc(S(C)(=O)=O)c3)s2)n(-c2ccccc2Cl)n1 [Example 1154, N-{[1-(2-chlorophenyl)-5-{5-[3-(methylsulfonyl)phenyl]-2-thienyl}-1H-pyrazol-3-yl]carbonyl}-N-methylglycine]",1000 to 10000 nM
13,"COC(=O)CCNC(=O)c1ccc(-c2cc(C(F)(F)F)nn2-c2ccccc2Cl)cc1 [Example 1356, methyl N-({4-[1-(2-chlorophenyl)-3-(trifluoromethyl)-1H-pyrazol-5-yl]phenyl}carbonyl)-beta-alaninate]",1000 to 10000 nM
14,"CC(C)(O)c1cc(-c2ccc(-c3cccc(S(C)(=O)=O)c3)s2)n(-c2cccnc2Cl)n1 [Example 1273, 2-[1-(2-chloropyridin-3-yl)-5-{5-[3-(methylsulfonyl)phenyl]-2-thienyl}-1H-pyrazol-3-yl]propan-2-ol]",< 1000 nM
15,"Cc1c(C(C)(C)O)nn(-c2ccccc2Cl)c1-c1ccc(-c2cccc(S(C)(=O)=O)c2)s1 [Example 1301, 2-[1-(2-chlorophenyl)-4-methyl-5-{5-[3-(methylsulfonyl)phenyl]-2-thienyl}-1H-pyrazol-3-yl]propan-2-ol]",< 1000 nM
16,"COC(=O)c1cc(-c2ccc(-c3cccc(S(C)(=O)=O)c3)cn2)n(-c2ccccc2Cl)n1 [Example 118, methyl 1-(2-chlorophenyl)-5-(5-(3-(methylsulfonyl)phenyl)pyridin-2-yl)-1H-pyrazole-3-carboxylate]",< 1000 nM
17,"CCc1ccccc1-n1nc(C(C)(C)O)c(Cl)c1-c1ccc(-c2cccc(S(C)(=O)=O)c2)s1 [Example 1373, 2-[4-chloro-1-(2-ethylphenyl)-5-{5-[3-(methylsulfonyl)phenyl]-2-thienyl}-1H-pyrazol-3-yl]propan-2-ol]",< 1000 nM

row,Compound,EC50
1,"CCS(=O)(=O)c1cccc(-c2ccc(-c3cc(C(C)(C)O)nn3-c3ccccc3Cl)s2)c1 [Example 1316, 2-[1-(2-chlorophenyl)-5-{5-[3-(ethylsulfonyl)phenyl]-2-thienyl}-1H-pyrazol-3-yl]propan-2-ol]",1000 to 10000 nM
2,"CC(C)(O)c1cc(-c2ccc(-c3cccc(S(C)(=O)=O)c3)s2)n(-c2ccc(Cl)cc2)n1 [Example 1257, 2-[1-(4-chlorophenyl)-5-{5-[3-(methylsulfonyl)phenyl]-2-thienyl}-1H-pyrazol-3-yl]propan-2-ol]",1000 to 10000 nM
3,"CC(C)(O)c1cc(-c2ccc(-c3cccc(S(C)(=O)=O)c3)s2)n(-c2c(Cl)cc(Cl)cc2C(F)(F)F)n1 [Example 1341, 2-(1-[2,4-dichloro-6-(trifluoromethyl)phenyl]-5-{5-[3-(methylsulfonyl)phenyl]-2-thienyl}-1H-pyrazol-3-yl)propan-2-ol]",1000 to 10000 nM
4,"CC(C)(O)c1cc(-c2cccc(F)c2F)n(-c2ccc(-c3cccc(S(C)(=O)=O)c3)cc2Cl)n1 [Example 131, 2-(1-(3-chloro-3′-(methylsulfonyl)biphenyl-4-yl)-5-(2,3-difluorophenyl)-1H-pyrazol-3-yl)propan-2-ol]",< 1000 nM
5,"CC(C)(O)c1cc(-c2cc(C(F)(F)F)nn2-c2ccccc2Cl)ccc1-c1cccc(S(C)(=O)=O)c1 [Example 1207, 2-{4-[1-(2-chlorophenyl)-3-(trifluoromethyl)-1H-pyrazol-5-yl]-3′-(methylsulfonyl)biphenyl-2-yl}propan-2-ol]",1000 to 10000 nM
6,"CCC(O)(CC)c1cc(-c2ccc(-c3cccc(S(C)(=O)=O)c3)s2)n(-c2ccccc2Cl)n1 [Example 1174, 3-[1-(2-chlorophenyl)-5-{5-[3-(methylsulfonyl)phenyl]-2-thienyl}-1H-pyrazol-3-yl]pentan-3-ol]",< 1000 nM
7,"CS(=O)(=O)c1cccc(-c2ccc(-c3cc(C(=S)NCC(F)(F)F)nn3-c3ccccc3Cl)s2)c1 [Example 1277, 1-(2-chlorophenyl)-5-{5-[3-(methylsulfonyl)phenyl]-2-thienyl}-N-(2,2,2-trifluoromethyl)-1H-pyrazole-3-carbothioamide]",< 1000 nM
8,"Cc1cc(-c2cccc(S(C)(=O)=O)c2)ccc1-n1nc(C(C)(C)O)cc1-c1cccc(Cl)c1Cl [Example 136, 2-(5-(2,3-dichlorophenyl)-1-(3-methyl-3′-(methylsulfonyl)biphenyl-4-yl)1H-pyrazol-3-yl)propan-2-ol]",< 1000 nM
9,"CC(C)(O)c1nn(-c2ccccc2OC(F)(F)F)c(-c2ccc(-c3cccc(S(C)(=O)=O)c3)s2)c1Cl [Example 1367, 2-(4-chloro-5-{5-[3-(methylsulfonyl)phenyl]-2-thienyl}-1-{2-[(trifluoromethyl)oxy]phenyl}-1H-pyrazol-3-yl)propan-2-ol]",< 1000 nM
10,"CS(=O)(=O)c1cccc(-c2ccc(-c3cc(C4(C#N)CCCC4)nn3-c3ccccc3Cl)s2)c1 [Example 1191, 1-[1-(2-chlorophenyl)-5-{5-[3-(methylsulfonyl)phenyl]-2-thienyl}-1H-pyrazol-3-yl]cyclopentanecarbonitrile]",< 1000 nM
11,"CC(C)(O)c1cc(-c2ccc(-c3cccc(S(C)(=O)=O)c3)s2)n(-c2cnccc2C(F)(F)F)n1 [Example 1351, 2-(5-{5-[3-(methylsulfonyl)phenyl]-2-thienyl}-1-[4-(trifluoromethyl)pyridin-3-yl]-1H-pyrazol-3-yl)propan-2-ol]",1000 to 10000 nM
12,"CC(C)(O)c1nn(-c2ccccc2OC(F)(F)F)c(-c2ccc(-c3cccc(S(C)(=O)=O)c3)s2)c1Br [Example 1359, 2-(4-bromo-5-{5-[3-(methylsulfonyl)phenyl]-2-thienyl)-1-{2-[(trifluoromethyl)oxy]phenyl}-1H-pyrazol-3-yl)propan-2-ol]",< 1000 nM
13,"CC(=O)c1cc(-c2ccc(-c3cccc(S(C)(=O)=O)c3)s2)n(-c2c(Cl)cccc2Cl)n1 [Example 1242, 1-[1-(2,6-dichlorophenyl)-5-{5-[3-(methylsulfonyl)phenyl]-2-thienyl}-1H-pyrazol-3-yl]ethanone]",< 1000 nM
14,"CC(C)(O)c1cc(-c2ccc(-c3cccc(S(C)(=O)=O)c3)cn2)n(-c2ccccc2Cl)n1 [Example 119, 2-(1-(2-chlorophenyl)-5-(5-(3-(methylsulfonyl)phenyl)pyridin-2-yl)-1H-pyrazol-3-yl)propan-2-ol]",1000 to 10000 nM
15,"CC(C)(O)c1cc(-c2ccc(-c3cccc(S(C)(=O)=O)c3)s2)n(-c2ccncc2Cl)n1 [Example 112, 2-(1-(3-chloropyridin-4-yl)-5-(5-(3-(methylsulfonyl)phenyl)thiophen-2-yl)-1H-pyrazol-3-yl)propan-2-ol]",1000 to 10000 nM
16,"CC(C)(O)c1cc(-c2ccc(-c3cccc(S(C)(=O)=O)c3)s2)n(-c2cc(Cl)ccc2Cl)n1 [Example 1279, 2-[1-(2,5-dichlorophenyl)-5-{5-[3-(methylsulfonyl)phenyl]-2-thienyl}-1H-pyrazol-3-yl]propan-2-ol]",1000 to 10000 nM
